Assay [1] relates to hyperplastic scar wound surface. The assay is described as follows: Animal model of hyperplastic scar (excised whole-thickness skin wound). The format is in vivo, New-Zealand rabbit.
Procedure: The scar tissue was subjected to Masson staining and observed under light microscope, and the thickness of dermis (Da) of wound surface after epithelization and the thickness of dermis (Db) of adjacent normal tissue were measured.
In assay [2] the test system is deep second degree scald wound surface. The assay is described as follows: Animal model of burn (deep second degree steam scald). The format is in vivo, Rats.
Procedure: After rats were wounded, samples were taken at intervals of time. The wet weight of wound surface tissue (Ga) and the tissue dry weight (Gb) after baking at 80° C. for 72 hours were measured by weighting method. The water content of wound surface was calculated as W=(Ga−Gb)/Ga×100%, wherein W represented the degree of edema.

For the substance heparin silver, the “Scar index, 60 days” value in assay [1] (60 days, scar index = (Da−Db)/Db, dermis thickness, Masson staining) is listed as 2.06 ± 0.83 (n = 6). In addition, the “Scar index, 180 days” value in assay [1] (180 days, scar index = (Da−Db)/Db, dermis thickness, Masson staining) is 1.85 ± 0.52 (n = 6). Further, the “Healing time of wound surface (days)” value in assay [1] (rabbit 2 cm×5 cm excision wound, dressing with powder changed once per week, healed = scab less than 5% of wound area) is 21.4 ± 2.16 (n = 6) days. For the same substance, the “Water content of wound surface (W)” value in assay [2] (8 h after wounding, W=(Ga−Gb)/Ga×100%, degree of edema) was 80.25 ± 2.78 (n = 6) %; in assay [2] (24 h after wounding), 70.82 ± 3.56 (n = 6) %; in assay [2] (48 h after wounding), 70.16 ± 2.64 (n = 6) %; in assay [2] (72 h after wounding), 68.44 ± 1.32 (n = 5) %; in assay [2] (5 d after wounding), 67.61 ± 2.85 (n = 5) %; in assay [2] (7 d after wounding), 67.52 ± 1.36 (n = 5) %. Further, the “Hydroxyproline content of wound surface” value is reported as 18.55 ± 2.13 (n = 5) ug/mL in assay [2] (1 d after wounding, chloramine T oxidization method); 20.45 ± 2.12 (n = 5) ug/mL in assay [2] (2 d after wounding); 22.04 ± 1.35 (n = 5) ug/mL in assay [2] (3 d after wounding); 23.27 ± 2.11 (n = 6) ug/mL in assay [2] (5 d after wounding); 23.96 ± 2.54 (n = 6) ug/mL in assay [2] (7 d after wounding); 26.87 ± 2.36 (n = 6) ug/mL in assay [2] (10 d after wounding). Also, the “Hydroxyproline content of wound surface” value in assay [2] (14 d after wounding) is listed as 26.91 ± 2.14 (n = 6) ug/mL; in assay [2] (21 d after wounding), 24.05 ± 1.74 (n = 7) ug/mL. For the same substance, the “Healing Time (d)” value in assay [2] (rat 20% area deep second degree scald, powder dressing 0.5-1 mm changed once per day) was 21.5 ± 2.2 (n = 8) d. In addition, in assay [2] (summary statement), the “effect in the treatment of burns and/or scalds (animal test)” value was “accelerating healing speed, reducing occurrence of infection and inflammation, and improving healing quality of wound surface”.

The values above are taken from patent US8735363B2, “Preparation and application of heparin silver” (priority 2005, dated 2014).
